Test [1] can be described thus: P. falciparum Dd2 growth inhibitors, dose response, SYBR Green, dry powder samples (AID 1159566).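 Note: potency for growth inhibition with lower SYBR green DNA signal.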 The format is functional, cell-based.
Test [2] is described as follows: P. falciparum 3D7-ScDHODH growth inhibitors, dose response, SYBR Green, dry powder samples (AID 1159570).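 Note: parasite growth measured after 72 hours of compound exposure.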 The format is functional, cell-based.
For the next test, the system named is HeLa. The experiment in a line: HeLa cell cytotoxicity, dose response, cytotoxicity control, ATP luminescence, cherry-pick samples (AID 687004). The format is functional, cell-based. Conditions: Homo sapiens.
Test [3] is described as follows: HepG2 cell cytotoxicity, dose response, cytotoxicity control, plate reader, dry powder samples (AID 1159569).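 Note: inhibitor potency with signal falling toward the positive control level.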 The format is functional, cell-based.
Test [4] can be described thus: HEK293 Cytotoxicity Assay Measured in Cell-Based System Using Plate Reader - 7071-01_Inhibitor_Dose_CherryPick_Activity_Set2. The format is functional.
A short description of test [5]: P. falciparum ATP4 D1247Y mutant growth inhibitors, dose response, NITD609-resistant line, SYBR Green, dry powder (AID 1159571).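 Note: parasites synchronized at ring stage by sorbitol before testing.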 The format is functional, cell-based.
For a further test, the system named is HEK293. Nature of the test: HEK293T cell cytotoxicity, dose response, cytotoxicity control, ATP luminescence, cherry-pick samples (AID 687005).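 Note: cells exposed to compound for 48 hours.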 The format is functional, cell-based. The conditions noted are these: Homo sapiens.
Test [6] can be described thus: cytotoxicity in HeLa cells, dose response, cytotoxicity control, cell-based, 24 h, dry powder, set 2 (AID 651774). The test is classed as functional.
A short description of test [7]: A375 melanoma cell cytotoxicity, dose response, counter-screen for MITF inhibitor project, CellTiter-Glo luminescence, dry powder, set 2 (AID 624489).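 Note: actives are compounds lowering A375 viability meaning general cytotoxicity.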 The format is functional, cell-based. The conditions noted are these: A-375.
The nature of test [8]: A375 melanoma cell viability loss, dose response, counter-screen for MITF inhibitor project, CellTiter-Glo luminescence, dry powder, set 4 (AID 624364).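 Note: A375 melanoma cells are MITF independent so this is a counter screen.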 The format is functional, cell-based. Conditions: A-375.
Test [9] addresses Potassium channel subfamily K member 3 (Homo sapiens, UniProt O14649). Nature of the test: TASK1 (KCNK3) potassium channel inhibitors, SAR follow-up, CHO cells, FluxOR thallium flux (AID 652212). The test is classed as functional.
For the next test, the target named is Protein Wnt-3a (Mus musculus, UniProt P27467). Nature of the test: SAR analysis of small molecule antagonists of Gli-SUFU in a Wnt3a luminescent reporter assay. The format is functional.
Test [10] addresses Protein disulfide-isomerase A6 (Homo sapiens, UniProt Q15084). The experiment in a line: Secondary Assay for Selectivity of PDI Inhibitors (against ERp5) Measured in Biochemical System Using Plate Reader - 2137-04_Inhibitor_Dose_DryPowder_Activity_Set3.
Test [11] can be described thus: HeLa cell cytotoxicity, dose response, cytotoxicity control, ATP luminescence, dry powder (AID 652117). The test is classed as functional, cell-based.
Test [12] deals with Protein disulfide-isomerase (Homo sapiens, UniProt P07237). The experiment in a line: PDI inhibitors, insulin turbidity readout, confirmation, biochemical, dry powder samples, set 2 (AID 652146).
Test [13] can be described thus: HepG2 cell cytotoxicity, dose response, cytotoxicity control, cherry-picks, set 5 (AID 1053118). The format is functional, cell-based.
The nature of test [14]: HEK293 cell cytotoxicity, dose response, cytotoxicity control, cherry-picks, set 5 (AID 1053117). The test is classed as functional, cell-based.
A short description of test [15]: LGR2 antagonists, dose response, cell-based, HEK293, CRE-luciferase reporter, cherry pick (AID 743342). The test is classed as functional.
Test [16] in a line: MC4R antagonists, dose response, counter-screen for LGR2 antagonist project, cell-based, plate reader, cherry pick (AID 743444).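 Note: transfected HEK 293 cells stimulated with alpha-MSH peptide; potency of inhibitors of the alpha-MSH evoked signal.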 The format is functional.
Test [17] is described as follows: ADAM10 inhibitors, peptide cleavage, dose response, biochemical, QFRET (AID 743254).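 Note: ADAM10 enzyme with the DM2 quenched FRET peptide as substrate; EDANS fluorescence gain as the protease cuts the substrate; inhibitor potency against ADAM10 proteolytic activity.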
The target in test [18] is Disintegrin and metalloproteinase domain-containing protein 17 (Homo sapiens, UniProt P78536). The experiment in a line: ADAM17 protease inhibitors, dose response, counter-screen for ADAM10 exosite inhibitor project, biochemical, quenched FRET substrate (AID 743253).

Calls of active or inactive are those of the source.

Chain of Protein Wnt-3a (P27467 whole entry): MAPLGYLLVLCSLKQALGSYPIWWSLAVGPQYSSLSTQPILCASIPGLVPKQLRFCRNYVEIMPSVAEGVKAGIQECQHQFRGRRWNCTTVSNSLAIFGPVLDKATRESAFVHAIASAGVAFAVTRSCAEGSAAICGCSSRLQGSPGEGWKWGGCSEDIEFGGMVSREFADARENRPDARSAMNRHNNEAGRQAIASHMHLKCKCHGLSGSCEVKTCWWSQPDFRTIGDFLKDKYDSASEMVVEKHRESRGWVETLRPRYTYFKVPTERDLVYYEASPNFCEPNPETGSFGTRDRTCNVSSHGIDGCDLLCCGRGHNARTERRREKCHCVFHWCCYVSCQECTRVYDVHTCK
Chain of Protein disulfide-isomerase A6 (Q15084 whole entry): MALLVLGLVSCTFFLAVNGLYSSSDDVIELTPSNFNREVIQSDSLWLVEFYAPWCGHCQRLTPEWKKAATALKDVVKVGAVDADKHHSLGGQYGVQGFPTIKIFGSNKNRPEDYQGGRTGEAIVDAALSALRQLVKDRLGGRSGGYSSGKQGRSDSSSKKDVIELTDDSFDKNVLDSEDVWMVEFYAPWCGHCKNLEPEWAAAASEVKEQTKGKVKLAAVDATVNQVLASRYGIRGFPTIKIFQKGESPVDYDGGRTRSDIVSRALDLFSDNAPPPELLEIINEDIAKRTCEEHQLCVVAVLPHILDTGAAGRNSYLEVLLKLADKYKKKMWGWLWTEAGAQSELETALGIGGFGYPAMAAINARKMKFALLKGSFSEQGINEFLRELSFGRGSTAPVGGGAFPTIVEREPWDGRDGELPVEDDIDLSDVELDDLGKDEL
Chain of Potassium channel subfamily K member 3 (O14649 whole entry): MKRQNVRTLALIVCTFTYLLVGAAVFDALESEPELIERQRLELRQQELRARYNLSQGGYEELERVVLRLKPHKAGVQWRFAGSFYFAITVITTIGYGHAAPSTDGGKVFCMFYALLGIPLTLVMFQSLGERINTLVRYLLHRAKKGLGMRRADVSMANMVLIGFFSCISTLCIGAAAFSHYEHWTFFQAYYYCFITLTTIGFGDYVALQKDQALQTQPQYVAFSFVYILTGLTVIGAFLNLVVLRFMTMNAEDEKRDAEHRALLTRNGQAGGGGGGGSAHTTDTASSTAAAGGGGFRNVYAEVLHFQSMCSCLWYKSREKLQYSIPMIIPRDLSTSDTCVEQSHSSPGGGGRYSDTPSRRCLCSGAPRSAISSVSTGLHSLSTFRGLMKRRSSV
Chain of Disintegrin and metalloproteinase domain-containing protein 17 (P78536 whole entry, the tested form may be a part): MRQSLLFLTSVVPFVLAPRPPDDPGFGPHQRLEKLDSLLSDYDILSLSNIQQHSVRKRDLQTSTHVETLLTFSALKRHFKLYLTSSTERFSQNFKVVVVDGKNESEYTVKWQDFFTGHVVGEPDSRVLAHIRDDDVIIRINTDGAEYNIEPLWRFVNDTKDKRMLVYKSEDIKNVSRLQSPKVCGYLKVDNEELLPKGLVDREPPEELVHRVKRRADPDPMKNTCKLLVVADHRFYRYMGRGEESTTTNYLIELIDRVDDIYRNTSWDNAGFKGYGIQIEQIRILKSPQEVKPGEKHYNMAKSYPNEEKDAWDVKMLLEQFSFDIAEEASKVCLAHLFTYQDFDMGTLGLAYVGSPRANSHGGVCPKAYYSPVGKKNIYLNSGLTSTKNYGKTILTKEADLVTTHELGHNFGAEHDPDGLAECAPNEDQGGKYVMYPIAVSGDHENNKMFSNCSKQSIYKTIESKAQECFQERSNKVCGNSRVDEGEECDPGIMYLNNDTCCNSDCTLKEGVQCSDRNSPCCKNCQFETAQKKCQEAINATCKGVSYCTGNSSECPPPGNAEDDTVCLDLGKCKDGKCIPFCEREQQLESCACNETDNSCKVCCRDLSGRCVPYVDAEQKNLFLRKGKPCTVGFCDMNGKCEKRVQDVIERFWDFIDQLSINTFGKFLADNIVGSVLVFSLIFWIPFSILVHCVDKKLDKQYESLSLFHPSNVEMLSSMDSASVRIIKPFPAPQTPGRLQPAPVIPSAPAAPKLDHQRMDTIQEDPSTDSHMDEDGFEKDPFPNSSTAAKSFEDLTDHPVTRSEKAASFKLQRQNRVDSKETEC
Chain of Protein disulfide-isomerase (P07237 whole entry): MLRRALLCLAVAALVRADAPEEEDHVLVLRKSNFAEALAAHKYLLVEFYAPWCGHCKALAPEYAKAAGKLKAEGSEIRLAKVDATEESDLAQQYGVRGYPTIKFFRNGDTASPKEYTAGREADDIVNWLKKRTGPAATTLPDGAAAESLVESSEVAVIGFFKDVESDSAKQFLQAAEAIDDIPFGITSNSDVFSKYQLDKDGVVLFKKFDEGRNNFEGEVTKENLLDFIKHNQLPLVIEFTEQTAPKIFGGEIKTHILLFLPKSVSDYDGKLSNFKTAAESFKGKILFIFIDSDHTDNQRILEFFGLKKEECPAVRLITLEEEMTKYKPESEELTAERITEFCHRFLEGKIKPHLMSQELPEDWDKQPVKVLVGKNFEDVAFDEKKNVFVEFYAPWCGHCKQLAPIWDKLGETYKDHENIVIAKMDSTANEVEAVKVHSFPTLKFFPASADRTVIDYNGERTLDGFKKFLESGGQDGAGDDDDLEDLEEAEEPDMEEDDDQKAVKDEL

As to `N#C[C@H]1[C@@H](c2ccc(C#CCC3CCCC3)cc2)[C@@H](CO)N1C(=O)c1ccccn1`, the AC50 was 0.851 µM (active) in [1]; 1.73 µM (active) in [2]; 27.8 µM (active) with HeLa; 46.9 µM (active) in [3]; 15.7 µM (active) in test [4]; 1.44 µM (active) in test [5]. For the same compound, the half-maximal activity concentration (AC50) in the test with HEK293 was 15.7 µM (active).
Take `Cn1nnnc1NCc1ccc(C(F)(F)F)cc1`: the AC50 in test [6] is > 70 µM (inactive).
Consider `O=C1C(NS(=O)(=O)c2ccc(Br)cc2)=C(N2CCSCC2)C(=O)c2ccccc21`, for which the AC50 in test [7] and in test [8] was > 70 µM (inactive) each time.
On to `Cc1cccc(S(=O)(=O)Nc2cccc(NC(=O)c3ccccc3)c2)c1`, for which, in [9], the IC50 was 1.45 µM (active).
With `O=C(Nc1cc(N2CCCCC2)ncn1)c1ccc(C(F)(F)F)cc1`, at Protein Wnt-3a, the IC50 is > 21.8 µM (inactive).
Regarding `CC(C)OC(=O)C1(CCOc2ccccc2)CCN(Cc2ccc(O)c(Cl)c2)CC1`, the AC50 in [10] is 30 µM (inactive); in test [11] it was 47.9 µM (active); in test [12] it was 1 µM (active).
`N#Cc1ccc(-c2ccc3c(c2)[C@H]2[C@H](CCN2S(=O)(=O)c2cccc(F)c2)[C@@H](CO)N3)cc1`: the AC50 in [13] is 38.1 µM (active); in [14], 32.8 µM (active).
For the compound `C[C@H](CO)N1C[C@H](C)[C@H](CN(C)C(=O)Nc2ccc(F)cc2)OCCCC[C@H](C)Oc2ccc(NC(=O)C3CCCCC3)cc2C1=O`, the values for the AC50 in test [15] and in test [16] were 1.82 µM (active) and 65.8 µM (active), respectively.
Consider `COc1ccc(C(=O)N/N=C/c2ccc(OC)c(COc3ccccc3)c2)cc1`, for which the IC50 in test [17] and in test [18] was > 69.5 µM (inactive) in each case.

The record behind these values is ChEMBL document CHEMBL1201862, “PubChem BioAssay data set” (2004).
